Results: patent publication US20060252766A1, “Methods using a combination of 3-heteroaryl-2-indolinone and a cyclooxygenase-2 inhibitor for the treatment of neoplasia” (PFIZER INC, priority 2002, published 2006)
Several values for one entry are separate records, joined by “and”; a condition that tells them apart may be missing. Equal values may be shown once.

Tested on: 1483 human head and neck squamous cell carcinoma (HNSCC) xenograft
Assay: HN1483 tumor model: paw tumor volume of treated mice
Format: in vivo, nude mice
Conditions: for Paw volume, paw / Tumor vol.: individual mice; for Tumor vol.: paw minus BKG. 0.10
[1] = Celecoxib/40 ppm, Day 17 Mar. 16, 2001
[2] = Celecoxib/40 ppm, Day 21 Mar. 20, 2001
[3] = Celecoxib/40 ppm, Day 24 Mar. 23, 2001
[4] = Celecoxib/40 ppm, Day 31 Apr. 2, 2001
[5] = Celecoxib/40 ppm, Day 31 Mar. 30, 2001
[6] = Celecoxib/160 ppm, Day 17 Mar. 16, 2001
[7] = Celecoxib/160 ppm, Day 21 Mar. 20, 2001
[8] = Celecoxib/160 ppm, Day 24 Mar. 23, 2001
[9] = Celecoxib/160 ppm, Day 31 Apr. 2, 2001
[10] = Celecoxib/160 ppm, Day 31 Mar. 30, 2001

Cc1ccc(-c2cc(C(F)(F)F)nn2-c2ccc(S(N)(=O)=O)cc2)cc1 [Celecoxib, celecoxib, reference compound]
Paw volume, paw (Celecoxib/40 ppm, Day 14 Mar. 13, 2001): 0.28 (2×) and 0.25 (2×) and 0.24 (2×) and 0.29 and 0.27
Tumor vol. Average (Celecoxib/40 ppm, Day 17 Mar. 16, 2001, group average): 0.17
Paw volume, paw [1]: 0.3 and 0.29 (2×) and 0.22 and 0.32 and 0.27 and 0.25 (2×)
Tumor vol. [1]: 0.20 and 0.19 (2×) and 0.12 and 0.22 and 0.17 and 0.15 (2×)
Tumor vol. Average (Celecoxib/40 ppm, Day 21 Mar. 20, 2001, group average): 0.22
Paw volume, paw [2]: 0.38 (2×) and 0.23 and 0.36 and 0.28 (2×) and 0.39 and 0.31
Tumor vol. [2]: 0.28 (3×) and 0.13 and 0.18 (2×) and 0.29 and 0.21
Tumor vol. Average (Celecoxib/40 ppm, Day 24 Mar. 23, 2001, group average): 0.23
Paw volume, paw [3]: 0.37 and 0.32 and 0.23 and 0.44 and 0.28 and 0.29 and 0.47 and 0.27
Tumor vol. [3]: 0.27 and 0.22 and 0.13 and 0.34 and 0.18 and 0.19 and 0.37 and 0.17
Tumor vol. Average (Celecoxib/40 ppm, Day 31 Apr. 2, 2001, group average): 0.48
Paw volume, paw [4]: 0.7 and 0.48 (2×) and 0.25 and 0.75 and 0.44 and 0.38 and 0.89
Tumor vol. [4]: 0.60 and 0.38 (2×) and 0.18 and 0.55 and 0.34 and 0.28 and 0.79
Tumor vol. Average (Celecoxib/40 ppm, Day 31 Mar. 30, 2001, group average): 0.40
Paw volume, paw [5]: 0.63 and 0.51 and 0.27 and 0.72 and 0.30 and 0.39 and 0.71 and 0.41
Tumor vol. [5]: 0.53 and 0.41 and 0.17 and 0.82 and 0.29 and 0.20 and 0.61 and 0.31
Paw volume, paw (Celecoxib/160 ppm, Day 14 Mar. 13, 2001): 0.19 and 0.26 and 0.22 and 0.3 and 0.23 (3×) and 0.28
Tumor vol. Average (Celecoxib/160 ppm, Day 17 Mar. 16, 2001, group average (row not labelled)): 0.18
Paw volume, paw [6]: 0.24 and 0.25 (2×) and 0.21 and 0.31 and 0.23 and 0.29 and 0.27
Tumor vol. [6]: 0.14 and 0.15 (2×) and 0.11 and 0.21 and 0.13 and 0.19 and 0.17
Tumor vol. Average (Celecoxib/160 ppm, Day 21 Mar. 20, 2001, group average (row not labelled)): 0.15
Paw volume, paw [7]: 0.22 and 0.28 (2×) and 0.24 and 0.32 and 0.3 (2×) and 0.25
Tumor vol. [7]: 0.12 and 0.16 (3×) and 0.14 and 0.22 and 0.20 (2×)
Tumor vol. Average (Celecoxib/160 ppm, Day 24 Mar. 23, 2001, group average (row not labelled)): 0.19
Paw volume, paw [8]: 0.22 and 0.28 and 0.24 (2×) and 0.38 and 0.27 and 0.35 and 0.31
Tumor vol. [8]: 0.12 and 0.16 and 0.14 (2×) and 0.28 and 0.17 and 0.26 and 0.21
Tumor vol. Average (Celecoxib/160 ppm, Day 31 Apr. 2, 2001, group average (row not labelled)): 0.29
Paw volume, paw [9]: 0.33 (3×) and 0.57 and 0.29 and 0.59 and 0.4 and 0.28
Tumor vol. [9]: 0.23 (2×) and 0.22 and 0.47 and 0.19 and 0.49 and 0.30 and 0.10
Tumor vol. Average (Celecoxib/160 ppm, Day 31 Mar. 30, 2001, group average (row not labelled)): 0.29
Paw volume, paw [10]: 0.38 and 0.32 and 0.3 and 0.49 and 0.33 and 0.57 and 0.4 and 0.5
Tumor vol. [10]: 0.28 and 0.22 and 0.20 (2×) and 0.39 and 0.23 and 0.47 and 0.30
